Laboratory results reported in the supplement of paper PMC10307832.

How the values were obtained:
Experiment in all cases: relative viability (nuclei count vs DMSO), 5 days (fraction); higher = more cells survive
[1] = compound: CC1=C(C(=O)N2C=CSC2=N1)CCN3CCC(=C(C4=CC=CC=C4)C5=CC=C(C=C5)F)CC3 + CC(=O)c1c(C)c2cnc(Nc3ccc(N4CCNCC4)cn3)nc2n(C2CCCC2)c1=O [Palbociclib] (partner 0.5 µM)
In short: (§1)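 Relative viability is defined as nuclei in treated wells over nuclei in vehicle wells. Duplicate plates were run and medians reported. Lung cancer cell lines in 1536-well plates were dosed by pin tool one day after seeding, with one drug or with a fixed anchor-drug dose plus five library-drug doses (not always all listed) in √10 steps, and nuclei were counted after 5 days.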

[2] = compound: CC1=C(C(=O)N2C=CSC2=N1)CCN3CCC(=C(C4=CC=CC=C4)C5=CC=C(C=C5)F)CC3 + COc1cccc2cc(-c3nc([C@H]4CC[C@H](C(=O)O)CC4)n4ncnc(N)c34)[nH]c12 [OSI-027] (partner 0.5 µM)
In short: as §1

[3] = compound: CC1=C(C(=O)N2C=CSC2=N1)CCN3CCC(=C(C4=CC=CC=C4)C5=CC=C(C=C5)F)CC3 + CS(=O)(=O)N1CCN(Cc2cc3nc(-c4cccc5[nH]ncc45)nc(N4CCOCC4)c3s2)CC1 [Pictilisib] (partner 1 µM)
In short: as §1

[4] = compound: CC1=C(C(=O)N2C=CSC2=N1)CCN3CCC(=C(C4=CC=CC=C4)C5=CC=C(C=C5)F)CC3 + CCNC(=O)c1noc(-c2cc(C(C)C)c(O)cc2O)c1-c1ccc(CN2CCOCC2)cc1 [Luminespib] (partner 0.01 µM)
In short: as §1

NCI-H1355
relative viability ([1]; first compound 0.08 µM): 0.368 | relative viability ([1]; first compound 0.253 µM): 0.404 | relative viability ([1]; first compound 0.8 µM): 0.378 | relative viability ([1]; first compound 2.53 µM): 0.407 | relative viability ([1]; first compound 8 µM): 0.455 | relative viability ([2]; first compound 0.08 µM): 0.377 | relative viability ([2]; first compound 0.253 µM): 0.405 | relative viability ([2]; first compound 0.8 µM): 0.355 | relative viability ([2]; first compound 2.53 µM): 0.421 | relative viability ([2]; first compound 8 µM): 0.424 | relative viability ([3]; first compound 0.08 µM): 0.445 | relative viability ([3]; first compound 0.253 µM): 0.504 | relative viability ([3]; first compound 0.8 µM): 0.534 | relative viability ([3]; first compound 2.53 µM): 0.472 | relative viability ([3]; first compound 8 µM): 0.385 | relative viability ([4]; first compound 0.08 µM): 0.767 | relative viability ([4]; first compound 0.253 µM): 0.735 | relative viability ([4]; first compound 0.8 µM): 0.809 | relative viability ([4]; first compound 2.53 µM): 0.656 | relative viability ([4]; first compound 8 µM): 0.675

NCI-H1755
relative viability ([1]; first compound 0.08 µM): 0.433 | relative viability ([1]; first compound 0.253 µM): 0.429 | relative viability ([1]; first compound 0.8 µM): 0.395 | relative viability ([1]; first compound 2.53 µM): 0.426 | relative viability ([1]; first compound 8 µM): 0.432 | relative viability ([2]; first compound 0.08 µM): 0.744 | relative viability ([2]; first compound 0.253 µM): 0.861 | relative viability ([2]; first compound 0.8 µM): 0.664 | relative viability ([2]; first compound 2.53 µM): 0.68 | relative viability ([2]; first compound 8 µM): 0.672 | relative viability ([3]; first compound 0.08 µM): 0.387 | relative viability ([3]; first compound 0.253 µM): 0.482 | relative viability ([3]; first compound 0.8 µM): 0.42 | relative viability ([3]; first compound 2.53 µM): 0.423 | relative viability ([3]; first compound 8 µM): 0.37 | relative viability ([4]; first compound 0.08 µM): 0.467 | relative viability ([4]; first compound 0.253 µM): 0.548 | relative viability ([4]; first compound 0.8 µM): 0.374 | relative viability ([4]; first compound 2.53 µM): 0.333 | relative viability ([4]; first compound 8 µM): 0.519

NCI-H661
relative viability ([1]; first compound 0.08 µM): 0.402 | relative viability ([1]; first compound 0.253 µM): 0.393 | relative viability ([1]; first compound 0.8 µM): 0.391 | relative viability ([1]; first compound 2.53 µM): 0.417 | relative viability ([1]; first compound 8 µM): 0.429 | relative viability ([2]; first compound 0.08 µM): 0.618 | relative viability ([2]; first compound 0.253 µM): 0.659 | relative viability ([2]; first compound 0.8 µM): 0.691 | relative viability ([2]; first compound 2.53 µM): 0.712 | relative viability ([2]; first compound 8 µM): 0.627 | relative viability ([3]; first compound 0.08 µM): 0.404 | relative viability ([3]; first compound 0.253 µM): 0.382 | relative viability ([3]; first compound 0.8 µM): 0.338 | relative viability ([3]; first compound 2.53 µM): 0.352 | relative viability ([3]; first compound 8 µM): 0.361 | relative viability ([4]; first compound 0.08 µM): 1.03 | relative viability ([4]; first compound 0.253 µM): 0.984 | relative viability ([4]; first compound 0.8 µM): 0.928 | relative viability ([4]; first compound 2.53 µM): 1.04 | relative viability ([4]; first compound 8 µM): 0.598
